Test results taken from the NIST ThermoML archive (doi:10.1016/j.fluid.2013.12.022).
Numbers after ± are expanded uncertainties.

Experiment: refractive index (other wavelength) (dimensionless); xn = mol fraction of the nth substance listed
Conditions: 85 kPa, Liquid, Wavelength=632.8 nm, minimum deviation angle technique

CCCCCCCC[n+]1ccn(C)c1.F[P-](F)(F)(F)(F)F [1-octyl-3-methylimidazolium hexafluorophosphate] + CC(C)(C)O
Conditions | refractive index
312.06 K, x1 = 1 | 1.4179 ± 0.0003
314.47 K, x1 = 1 | 1.4173 ± 0.0003
316.92 K, x1 = 1 | 1.4166 ± 0.0003
317.23 K, x1 = 0.699 | 1.4113 ± 0.0003
317.35 K, x1 = 0.803 | 1.4134 ± 0.0003
317.36 K, x1 = 0.991 | 1.4149 ± 0.0003
317.38 K, x1 = 0.398 | 1.4034 ± 0.0002
319.13 K, x1 = 0.5 | 1.4064 ± 0.0002
319.2 K, x1 = 1 | 1.416 ± 0.0003
319.25 K, x1 = 0.699 | 1.4107 ± 0.0003
319.26 K, x1 = 0.803 | 1.4129 ± 0.0003
319.3 K, x1 = 0.991 | 1.4144 ± 0.0003
319.31 K, x1 = 0.398 | 1.4028 ± 0.0002
319.63 K, x1 = 0.601 | 1.4088 ± 0.0002
320.77 K, x1 = 0.5 | 1.4059 ± 0.0002
321.17 K, x1 = 0.1 | 1.3834 ± 0.0002
321.28 K, x1 = 0.991 | 1.4139 ± 0.0003
321.32 K, x1 = 1 | 1.4155 ± 0.0003
321.34 K, x1 = 0.803 | 1.4124 ± 0.0003
321.37 K, x1 = 0.2 | 1.3919 ± 0.0002
321.38 K, x1 = 0.299 | 1.3978 ± 0.0002
321.4 K, x1 = 0.699 | 1.4102 ± 0.0003
321.46 K, x1 = 0.398 | 1.4021 ± 0.0002
321.58 K, x1 = 0.601 | 1.4083 ± 0.0002
322.42 K, x1 = 0.5 | 1.4054 ± 0.0002
322.78 K, x1 = 0.299 | 1.3972 ± 0.0002
322.79 K, x1 = 0.2 | 1.3912 ± 0.0002
322.97 K, x1 = 0.1 | 1.3826 ± 0.0002
323.23 K, x1 = 0.991 | 1.4134 ± 0.0003
323.3 K, x1 = 1 | 1.4149 ± 0.0003
323.32 K, x1 = 0.699 | 1.4097 ± 0.0003
323.32 K, x1 = 0.803 | 1.4118 ± 0.0003
323.79 K, x1 = 0.601 | 1.4077 ± 0.0002
323.84 K, x1 = 0.398 | 1.4013 ± 0.0002
324.07 K, x1 = 0.5 | 1.4049 ± 0.0002
324.29 K, x1 = 0.2 | 1.3906 ± 0.0002
324.29 K, x1 = 0.299 | 1.3967 ± 0.0002
324.43 K, x1 = 0.1 | 1.3819 ± 0.0002
325 K, x1 = 0.601 | 1.4073 ± 0.0002
325.29 K, x1 = 0.991 | 1.4128 ± 0.0003
325.3 K, x1 = 0.699 | 1.4093 ± 0.0003
325.35 K, x1 = 0.803 | 1.4113 ± 0.0003
325.38 K, x1 = 1 | 1.4143 ± 0.0003
325.78 K, x1 = 0.398 | 1.4007 ± 0.0002
325.81 K, x1 = 0.299 | 1.3963 ± 0.0002
325.82 K, x1 = 0.1 | 1.3814 ± 0.0002
325.92 K, x1 = 0.5 | 1.4043 ± 0.0002
325.95 K, x1 = 0.2 | 1.39 ± 0.0002
327.11 K, x1 = 0.699 | 1.4088 ± 0.0003
327.12 K, x1 = 0.803 | 1.4108 ± 0.0003
327.13 K, x1 = 0.601 | 1.4066 ± 0.0002
327.36 K, x1 = 0.2 | 1.3894 ± 0.0002
327.4 K, x1 = 0.991 | 1.4123 ± 0.0003
327.41 K, x1 = 1 | 1.4138 ± 0.0003
327.47 K, x1 = 0.299 | 1.3957 ± 0.0002
327.72 K, x1 = 0.398 | 1.4 ± 0.0002
327.74 K, x1 = 0.5 | 1.4037 ± 0.0002
327.97 K, x1 = 0.1 | 1.3804 ± 0.0002
328.85 K, x1 = 0.601 | 1.4061 ± 0.0002
329.18 K, x1 = 0.1 | 1.3797 ± 0.0002
329.18 K, x1 = 0.2 | 1.3887 ± 0.0002
329.26 K, x1 = 0.299 | 1.3951 ± 0.0002

CCCCCCCC[n+]1ccn(C)c1.F[P-](F)(F)(F)(F)F [1-octyl-3-methylimidazolium hexafluorophosphate] + CCCO
Conditions | refractive index
298.19 K, x1 = 1 | 1.4215 ± 0.0003
300.2 K, x1 = 1 | 1.421 ± 0.0003
302.19 K, x1 = 1 | 1.4204 ± 0.0003
304.2 K, x1 = 1 | 1.4199 ± 0.0003
305.17 K, x1 = 0.3 | 1.4047 ± 0.0002
305.17 K, x1 = 0.5 | 1.4114 ± 0.0002
305.21 K, x1 = 0.6 | 1.4137 ± 0.0002
305.22 K, x1 = 0.801 | 1.4171 ± 0.0003
305.23 K, x1 = 0.698 | 1.4154 ± 0.0003
305.26 K, x1 = 0.899 | 1.4184 ± 0.0003
305.27 K, x1 = 0.399 | 1.4084 ± 0.0002
306.18 K, x1 = 0.6 | 1.4134 ± 0.0002
306.19 K, x1 = 0.5 | 1.4111 ± 0.0002
306.2 K, x1 = 0.3 | 1.4044 ± 0.0002
306.2 K, x1 = 0.399 | 1.4081 ± 0.0002
306.2 K, x1 = 0.801 | 1.4168 ± 0.0003
306.22 K, x1 = 1 | 1.4193 ± 0.0003
306.23 K, x1 = 0.698 | 1.4151 ± 0.0003
306.25 K, x1 = 0.899 | 1.4181 ± 0.0003
307.19 K, x1 = 0.3 | 1.404 ± 0.0002
307.19 K, x1 = 0.801 | 1.4165 ± 0.0003
307.21 K, x1 = 0.399 | 1.4078 ± 0.0002
307.21 K, x1 = 0.6 | 1.4131 ± 0.0002
307.24 K, x1 = 0.698 | 1.4148 ± 0.0003
307.24 K, x1 = 0.899 | 1.4178 ± 0.0003
307.29 K, x1 = 0.2 | 1.3986 ± 0.0002
307.35 K, x1 = 0.5 | 1.4108 ± 0.0002
308.19 K, x1 = 0.5 | 1.4105 ± 0.0002
308.2 K, x1 = 0.3 | 1.4037 ± 0.0002
308.21 K, x1 = 0.801 | 1.4162 ± 0.0003
308.23 K, x1 = 0.899 | 1.4175 ± 0.0003
308.24 K, x1 = 0.698 | 1.4146 ± 0.0003
308.24 K, x1 = 1 | 1.4188 ± 0.0003
308.25 K, x1 = 0.399 | 1.4075 ± 0.0002
308.26 K, x1 = 0.2 | 1.3983 ± 0.0002
308.27 K, x1 = 0.6 | 1.4128 ± 0.0002
308.32 K, x1 = 0.1 | 1.3904 ± 0.0002
309.18 K, x1 = 0.399 | 1.4072 ± 0.0002
309.19 K, x1 = 0.3 | 1.4034 ± 0.0002
309.19 K, x1 = 0.5 | 1.4102 ± 0.0002
309.21 K, x1 = 0.6 | 1.4125 ± 0.0002
309.21 K, x1 = 0.899 | 1.4173 ± 0.0003
309.22 K, x1 = 0.698 | 1.4143 ± 0.0003
309.23 K, x1 = 0.1 | 1.3901 ± 0.0002
309.23 K, x1 = 0.801 | 1.416 ± 0.0003
309.28 K, x1 = 0.2 | 1.3979 ± 0.0002
310.11 K, x1 = 0.3 | 1.4031 ± 0.0002
310.19 K, x1 = 0.6 | 1.4122 ± 0.0002
310.2 K, x1 = 0.5 | 1.4099 ± 0.0002
310.21 K, x1 = 0.899 | 1.417 ± 0.0003
310.23 K, x1 = 0.1 | 1.3897 ± 0.0002
310.23 K, x1 = 0.698 | 1.414 ± 0.0003
310.25 K, x1 = 0.801 | 1.4157 ± 0.0003
310.25 K, x1 = 1 | 1.4183 ± 0.0003
310.26 K, x1 = 0.2 | 1.3976 ± 0.0002
310.29 K, x1 = 0.399 | 1.4069 ± 0.0002
311.2 K, x1 = 0.6 | 1.4119 ± 0.0002
311.2 K, x1 = 0.801 | 1.4154 ± 0.0003
311.2 K, x1 = 0.899 | 1.4167 ± 0.0003
311.21 K, x1 = 0.3 | 1.4027 ± 0.0002
311.21 K, x1 = 0.399 | 1.4066 ± 0.0002
311.22 K, x1 = 0.5 | 1.4096 ± 0.0002
311.24 K, x1 = 0.1 | 1.3893 ± 0.0002
311.25 K, x1 = 0.2 | 1.3973 ± 0.0002
311.25 K, x1 = 0.698 | 1.4138 ± 0.0003
312.17 K, x1 = 0.3 | 1.4024 ± 0.0002
312.17 K, x1 = 0.399 | 1.4063 ± 0.0002
312.19 K, x1 = 0.6 | 1.4116 ± 0.0002
312.19 K, x1 = 0.698 | 1.4135 ± 0.0003
312.2 K, x1 = 0.2 | 1.397 ± 0.0002
312.2 K, x1 = 0.5 | 1.4093 ± 0.0002
312.2 K, x1 = 0.801 | 1.4151 ± 0.0003
312.2 K, x1 = 0.899 | 1.4164 ± 0.0003
312.24 K, x1 = 1 | 1.4178 ± 0.0003
312.26 K, x1 = 0.1 | 1.3889 ± 0.0002
313.24 K, x1 = 0.1 | 1.3886 ± 0.0002
313.24 K, x1 = 0.2 | 1.3966 ± 0.0002

CC(C)(C)O [2-methylpropan-2-ol] + CCCCCCCC[n+]1ccn(C)c1.F[P-](F)(F)(F)(F)F
x2 = 0
Conditions | refractive index
309.16 K | 1.3775 ± 0.0002
312.05 K | 1.3759 ± 0.0002
315.18 K | 1.3742 ± 0.0002
318.15 K | 1.3725 ± 0.0002
321.11 K | 1.3708 ± 0.0002
324.42 K | 1.3689 ± 0.0002

CCCO [propan-1-ol] + CCCCCCCC[n+]1ccn(C)c1.F[P-](F)(F)(F)(F)F
x2 = 0
Conditions | refractive index
298.19 K | 1.3818 ± 0.0002
300.2 K | 1.381 ± 0.0002
302.19 K | 1.3802 ± 0.0002
304.2 K | 1.3793 ± 0.0002
306.22 K | 1.3785 ± 0.0002
308.24 K | 1.3777 ± 0.0002
310.25 K | 1.3769 ± 0.0002
312.24 K | 1.376 ± 0.0002
